According to article PMC6755814, “Crystal structure of the first eukaryotic bilin reductase GtPEBB reveals a flipped binding mode of dihydrobiliverdin” (The Journal of Biological Chemistry, 2019):

Key:
mGtPEBB [1] = target: T1, mGtPEBB (Guillardia theta, UniProt L1IWQ9, R298K); experiment: UV/Vis spectral shift; anaerobic reductase assay with HPLC; assay type: biochemical; conditions: pH 7.5, ferredoxin from Synechococcus sp. PCC7002, NADPH regenerating system
T1 construct: gene GUITHDRAFT_96430; GST fusion in E. coli, cut by TEV protease, leaving N-terminal Gly-Gly; single-domain protein; codon-optimized gene
T1 sequence (L1IWQ9 entry or part of it R298K): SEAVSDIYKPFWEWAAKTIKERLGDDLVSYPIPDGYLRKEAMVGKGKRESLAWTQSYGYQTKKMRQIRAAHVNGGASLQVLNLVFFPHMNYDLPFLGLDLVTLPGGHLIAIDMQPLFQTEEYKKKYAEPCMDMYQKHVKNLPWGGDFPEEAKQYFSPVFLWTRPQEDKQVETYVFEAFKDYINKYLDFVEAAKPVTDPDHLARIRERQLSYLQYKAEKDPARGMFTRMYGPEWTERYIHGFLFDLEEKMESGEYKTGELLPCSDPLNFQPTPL

mGtPEBB [2] = target: T2, mGtPEBB (Guillardia theta, UniProt L1IWQ9, R298L); experiment: as above; assay type: binding; conditions: pH 7.5, ferredoxin from Synechococcus sp. PCC7002, NADPH regenerating system
T2 construct: gene GUITHDRAFT_96430; GST fusion in E. coli, cut by TEV protease, leaving N-terminal Gly-Gly; single-domain protein; codon-optimized gene
T2 sequence (L1IWQ9 entry or part of it R298L): as the sequence (L1IWQ9 entry or part of it R298K) above, with K215L counted along it

mGtPEBB [3] = target: T3, mGtPEBB (Guillardia theta, UniProt L1IWQ9, D182N); experiment: as above; assay type: binding; conditions: pH 7.5, ferredoxin from Synechococcus sp. PCC7002, NADPH regenerating system
T3 construct: gene GUITHDRAFT_96430; GST fusion in E. coli, cut by TEV protease, leaving N-terminal Gly-Gly; single-domain protein; codon-optimized gene
T3 sequence (L1IWQ9 entry or part of it D182N): as the sequence (L1IWQ9 entry or part of it R298K) above, with D99N, K215R counted along it

mGtPEBB [4] = target: T4, mGtPEBB (Guillardia theta, UniProt L1IWQ9, R298S); experiment: as above; assay type: binding; conditions: pH 7.5, ferredoxin from Synechococcus sp. PCC7002, NADPH regenerating system
T4 construct: gene GUITHDRAFT_96430; GST fusion in E. coli, cut by TEV protease, leaving N-terminal Gly-Gly; single-domain protein; codon-optimized gene
T4 sequence (L1IWQ9 entry or part of it R298S): as the sequence (L1IWQ9 entry or part of it R298K) above, with K215S counted along it

mGtPEBB [5] = target: T5, mGtPEBB (Guillardia theta, UniProt L1IWQ9, R298M); experiment: as above; assay type: binding; conditions: pH 7.5, ferredoxin from Synechococcus sp. PCC7002, NADPH regenerating system
T5 construct: gene GUITHDRAFT_96430; GST fusion in E. coli, cut by TEV protease, leaving N-terminal Gly-Gly; single-domain protein; codon-optimized gene
T5 sequence (L1IWQ9 entry or part of it R298M): as the sequence (L1IWQ9 entry or part of it R298K) above, with K215M counted along it

mGtPEBB [6] = target: T6, mGtPEBB (Guillardia theta, UniProt L1IWQ9, D302N); experiment: as above; assay type: binding; conditions: pH 7.5, ferredoxin from Synechococcus sp. PCC7002, NADPH regenerating system
T6 construct: gene GUITHDRAFT_96430; GST fusion in E. coli, cut by TEV protease, leaving N-terminal Gly-Gly; single-domain protein; codon-optimized gene
T6 sequence (L1IWQ9 entry or part of it D302N): as the sequence (L1IWQ9 entry or part of it R298K) above, with K215R, D219N counted along it

mGtPEBB [7] = target: T7, mGtPEBB (Guillardia theta, UniProt L1IWQ9); experiment: X-ray crystal structure of complex, […] Å; UV/Vis spectral shift; anaerobic reductase assay with HPLC; assay type: binding; conditions: co-crystal at pH 8.5; assay pH 7.5 with ferredoxin from Synechococcus sp. PCC7002, NADPH regenerating system; active site, flipped orientation
T7 construct: gene GUITHDRAFT_96430; GST fusion in E. coli, cut by TEV protease, leaving N-terminal Gly-Gly; single-domain protein; codon-optimized gene
T7 sequence (L1IWQ9 84-356): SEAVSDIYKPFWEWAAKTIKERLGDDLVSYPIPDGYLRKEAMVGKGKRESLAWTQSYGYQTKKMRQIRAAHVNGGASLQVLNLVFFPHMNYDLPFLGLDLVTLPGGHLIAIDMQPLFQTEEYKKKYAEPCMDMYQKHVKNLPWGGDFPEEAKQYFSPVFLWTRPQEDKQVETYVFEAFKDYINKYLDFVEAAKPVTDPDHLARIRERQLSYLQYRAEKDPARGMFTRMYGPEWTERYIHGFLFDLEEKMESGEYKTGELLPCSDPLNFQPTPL

mGtPEBB [8] = target: T8, mGtPEBB (Guillardia theta, UniProt L1IWQ9, R298A); experiment: UV/Vis spectral shift; anaerobic reductase assay with HPLC; assay type: biochemical; conditions: pH 7.5, ferredoxin from Synechococcus sp. PCC7002, NADPH regenerating system; trace conversion only
T8 construct: gene GUITHDRAFT_96430; GST fusion in E. coli, cut by TEV protease, leaving N-terminal Gly-Gly; single-domain protein; codon-optimized gene
T8 sequence (L1IWQ9 entry or part of it R298A): as the sequence (L1IWQ9 entry or part of it R298K) above, with K215A counted along it

mGtPEBB [9] = target: T7, mGtPEBB; experiment: UV/Vis spectral shift; HPLC of products; assay type: binding; conditions: pH 7.5, 10 μM protein, 10 μM bilin; unnatural ligand, not reduced
mGtPEBB [10] = target: T5, mGtPEBB; experiment: UV/Vis spectral shift; anaerobic reductase assay with HPLC; assay type: biochemical; conditions: pH 7.5, ferredoxin from Synechococcus sp. PCC7002, NADPH regenerating system; product DHBV, low efficiency

| SMILES | UV/Vis spectral shift; anaerobic reductase assay with HPLC (mGtPEBB [1]) | UV/Vis spectral shift; anaerobic reductase assay with HPLC (mGtPEBB [2]) | UV/Vis spectral shift; anaerobic reductase assay with HPLC (mGtPEBB [3]) | UV/Vis spectral shift; anaerobic reductase assay with HPLC (mGtPEBB [4]) | UV/Vis spectral shift; anaerobic reductase assay with HPLC (mGtPEBB [5]) | UV/Vis spectral shift; anaerobic reductase assay with HPLC (mGtPEBB [6]) | X-ray crystal structure of complex, 1.65 Å; UV/Vis spectral shift; anaerobic red (mGtPEBB [7]) | UV/Vis spectral shift; anaerobic reductase assay with HPLC (mGtPEBB [8]) | UV/Vis spectral shift; HPLC of products (mGtPEBB [9]) | UV/Vis spectral shift; anaerobic reductase assay with HPLC (mGtPEBB [10]) |
| --- | --- | --- | --- | --- | --- | --- | --- | --- | --- | --- |
| C=CC1=C(C)C(=O)NC1=CC1=NC(=Cc2[nH]c(CC3NC(=O)C(C=C)=C3C)c(C)c2CCC(=O)O)C(CCC(=O)O)=C1C (stereo not shown) [DHBV] | Replacing Arg-215 with lysine maintained side chain charge and size to some extent | the binding spectrum of R215L was very similar to the WT spectrum | caused a blue shift of the maximum of the DHBV-binding spectrum | both R215S and R215M showed binding spectra similar to WT | both R215S and R215M showed binding spectra similar to WT | caused a blue shift of the maximum of the DHBV-binding spectrum | Both chains showed clear density for DHBV already after molecular replacement | only trace amounts of PEB were detected for R215A |  |  |
| C=CC1=C(C)C(=Cc2[nH]c(C=C3N=C(C=C4NC(=O)C(C)=C4C=C)C(C)=C3CCC(=O)O)c(CCC(=O)O)c2C)NC1=O [BV] |  |  |  |  |  |  |  |  | indicated binding of this unnatural substrate | R215M was able to convert BV to DHBV |
